Experimental data: patent US20260306527A1, “PRMT INHIBITOR COMPOUNDS AND THE USES THEREOF” (Purdue Research Foundation, priority 2023, published 2026)

Legend:
Format in all cases: biochemical
[1] = molecular target: PRMT3 (Homo sapiens, UniProt O60678); experiment: SAHH-coupled fluorescence assay, inhibition of PRMT3; set-up: PRMT3 (residues 211-531) was cloned into the pET28a-MHL expression vector; tag of the pET28a-MHL vector (not described); made in house; host or cells: Escherichia coli BL21(DE3)
Sequence of PRMT3 (O60678 211-531): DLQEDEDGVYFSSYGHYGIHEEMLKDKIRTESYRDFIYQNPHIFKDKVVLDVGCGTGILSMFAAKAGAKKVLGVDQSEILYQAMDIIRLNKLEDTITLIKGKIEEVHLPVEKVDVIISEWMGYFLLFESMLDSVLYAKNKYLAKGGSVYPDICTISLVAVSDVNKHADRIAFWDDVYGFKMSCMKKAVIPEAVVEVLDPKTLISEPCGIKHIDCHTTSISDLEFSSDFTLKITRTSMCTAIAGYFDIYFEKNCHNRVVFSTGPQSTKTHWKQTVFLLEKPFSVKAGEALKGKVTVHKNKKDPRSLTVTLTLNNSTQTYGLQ
Description: (§1) A fluorescence-based SAHH-coupled assay was applied to study the inhibition activity of all synthesized compounds on PRMT 1 and 3.
(§2) The PRMT3 methylation assay was performed under the following conditions in a final well volume of 100 μL: 20 mM Tris (pH=7.5), 0.01% Triton X-100, 5 μM SAHH, 0.25 μM PRMT3, 30 μM AdoMet, and 15 μM ThioGlo4. […] Fluorescence was monitored on a BMG CLARIOstar microplate reader with excitation 380 nm and emission 505 nm. Data were processed by using GraphPad Prism software 8.0. All experiments were performed in duplicate.
(§3) Next, the inhibition activity of the library was investigated for five PRMT members from type I PRMTs.
as §2, with “8.0.” for “8.0. All experiments were performed in duplicate.”

[2] = molecular target: T1, PRMT1 (Homo sapiens, UniProt Q99873); experiment: SAHH-coupled fluorescence assay, inhibition of PRMT1
T1 construct: made in house
T1 sequence (Q99873 whole entry, species assumed): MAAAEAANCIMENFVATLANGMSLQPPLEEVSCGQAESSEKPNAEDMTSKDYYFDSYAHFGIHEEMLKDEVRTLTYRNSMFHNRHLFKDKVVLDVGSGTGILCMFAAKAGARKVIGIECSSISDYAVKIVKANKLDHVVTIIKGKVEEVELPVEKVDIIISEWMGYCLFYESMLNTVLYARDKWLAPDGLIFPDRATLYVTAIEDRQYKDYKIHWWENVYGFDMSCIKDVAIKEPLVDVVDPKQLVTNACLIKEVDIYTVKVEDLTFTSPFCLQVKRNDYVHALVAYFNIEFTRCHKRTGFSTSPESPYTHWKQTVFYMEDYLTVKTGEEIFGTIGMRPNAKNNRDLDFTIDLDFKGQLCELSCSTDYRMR
Description: as §1
(§4) The PRMT1 methylation assay was performed under the following conditions in a final well volume of 100 μL: 2.5 mM HEPES (pH=7.0), 25 mM NaCl, 25 μM EDTA, 50 μM TCEP, 0.01% Triton X-100, 5 μM SAHH, 0.1 μM PRMT1, 10 μM AdoMet, and 10 μM ThioGlo4. […] The fluorescence signal was monitored on a BMG CLARIOstar microplate reader with excitation at 400 nm and emission at 465 nm for 15 min. Data were processed using GraphPad Prism software 8.0.
as §3
as §4, with “A fluorescence-based SAHH-coupled assay was applied to determine the inhibition activity of all synthesized compounds on PRMT 1 and 3. The PRMT1” for “The PRMT1”, “software 8.0. All experiments were performed in duplicate.” for “software 8.0.”

[3] = molecular target: PRMT8 (Homo sapiens, UniProt Q9NR22); experiment: radioactive assay (Reaction Biology Corp.), inhibition of PRMT8
Sequence of PRMT8 (Q9NR22 whole entry, species assumed): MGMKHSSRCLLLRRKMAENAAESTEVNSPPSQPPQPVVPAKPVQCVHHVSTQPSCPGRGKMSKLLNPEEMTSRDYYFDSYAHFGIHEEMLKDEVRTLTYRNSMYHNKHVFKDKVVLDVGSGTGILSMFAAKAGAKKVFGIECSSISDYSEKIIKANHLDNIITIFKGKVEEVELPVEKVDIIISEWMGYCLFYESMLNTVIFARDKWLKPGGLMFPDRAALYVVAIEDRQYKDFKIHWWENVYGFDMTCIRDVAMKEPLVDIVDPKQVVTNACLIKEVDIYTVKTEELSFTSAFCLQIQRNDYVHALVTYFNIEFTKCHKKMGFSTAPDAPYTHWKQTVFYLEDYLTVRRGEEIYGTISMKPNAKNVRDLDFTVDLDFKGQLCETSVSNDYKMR
Description: as §3
(§5) The PRMT 4, 6 and 8 methylation assays were performed by Reaction Biology corp.

[4] = molecular target: PRMT6 (Homo sapiens, UniProt Q96LA8); experiment: radioactive assay (Reaction Biology Corp.), inhibition of PRMT6
Sequence of PRMT6 (Q96LA8 whole entry, species assumed): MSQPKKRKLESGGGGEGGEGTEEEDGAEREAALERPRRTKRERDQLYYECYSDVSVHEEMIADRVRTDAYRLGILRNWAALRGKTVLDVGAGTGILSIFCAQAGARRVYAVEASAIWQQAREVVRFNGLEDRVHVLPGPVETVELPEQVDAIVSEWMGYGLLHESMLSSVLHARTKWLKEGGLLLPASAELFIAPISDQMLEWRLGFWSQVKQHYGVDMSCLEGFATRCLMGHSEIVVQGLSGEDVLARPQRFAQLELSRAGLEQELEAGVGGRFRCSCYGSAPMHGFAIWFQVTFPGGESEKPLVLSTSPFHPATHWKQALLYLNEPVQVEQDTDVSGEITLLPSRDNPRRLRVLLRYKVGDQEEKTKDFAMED
Description: as §3, §5

[5] = molecular target: T2, PRMT4 (Homo sapiens, UniProt Q86X55); experiment: radioactive assay (Reaction Biology Corp.), inhibition of PRMT4
T2 sequence (Q86X55 1-608): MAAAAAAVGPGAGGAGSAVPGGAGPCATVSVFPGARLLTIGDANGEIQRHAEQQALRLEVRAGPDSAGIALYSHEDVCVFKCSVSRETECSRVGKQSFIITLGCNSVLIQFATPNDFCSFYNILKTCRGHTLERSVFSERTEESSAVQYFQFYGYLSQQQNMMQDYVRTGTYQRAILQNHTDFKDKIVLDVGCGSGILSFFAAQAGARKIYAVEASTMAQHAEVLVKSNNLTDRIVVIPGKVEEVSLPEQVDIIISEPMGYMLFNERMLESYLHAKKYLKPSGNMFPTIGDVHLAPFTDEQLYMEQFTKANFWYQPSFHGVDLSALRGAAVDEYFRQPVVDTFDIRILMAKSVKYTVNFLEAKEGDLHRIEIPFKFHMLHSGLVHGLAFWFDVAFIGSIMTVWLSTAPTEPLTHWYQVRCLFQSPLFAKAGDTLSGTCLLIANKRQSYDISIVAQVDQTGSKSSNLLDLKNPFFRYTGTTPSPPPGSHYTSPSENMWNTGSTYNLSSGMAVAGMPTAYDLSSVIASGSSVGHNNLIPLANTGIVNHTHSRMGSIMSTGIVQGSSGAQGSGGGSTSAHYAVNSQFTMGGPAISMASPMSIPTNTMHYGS
Description: as §3, §5

SMILES	inhibition at 10 µM [1]	inhibition at 10 µM [2]	inhibition at 10 µM [3]	inhibition at 10 µM [4]	inhibition at 10 µM [5]	IC50 ([2]; read-out: IC50 FOR PRMT1)
CCNC(=O)NCCSC[C@H]1O[C@@H](n2cnc3c(N)ncnc32)[C@H](O)[C@@H]1O [Compound 7g, 1-(2-((((2S,3S,4R,5R)-5-(6-amino-9H-purin-9-yl)-3,4-dihydroxytetrahydrofuran-2-yl)methyl)thio)ethyl)-3-ethylurea]	4%	10%	14%	3%	27%	
N=C(NCCCO)NCCCSC[C@H]1O[C@@H](n2cnc3c(NCCCc4ccccc4)ncnc32)[C@H](O)[C@@H]1O [Compound 1-92]	10%	64%	55%	84%	54%	0.59 ± 0.073 µM
COc1cc2nc(-c3ccc(C(F)(F)F)cc3)nc(NCCSC[C@H]3O[C@@H](n4cnc5c(N)ncnc54)[C@H](O)[C@@H]3O)c2cc1OC [Compound 12e]	5%	3%	37%	19%	43%	
Nc1ncnc2c1ncn2[C@@H]1O[C@H](CSCCNCc2cccc(-c3ccc(C(F)(F)F)cc3)c2)[C@@H](O)[C@H]1O [Compound 10e]	15%	2%	67%	57%	99%	
COc1cc2nc(-c3ccc(N)cc3)nc(NCCSC[C@H]3O[C@@H](n4cnc5c(N)ncnc54)[C@H](O)[C@@H]3O)c2cc1OC [Compound 12j]	13%	12%	21%	8%	1%	
COc1cc2nc(-c3ccc(F)c(O)c3)nc(NCCSC[C@H]3O[C@@H](n4cnc5c(N)ncnc54)[C@H](O)[C@@H]3O)c2cc1OC [Compound 12f]	9%	12%	21%	16%	51%	
N=C(NCCCSC[C@H]1O[C@@H](n2cnc3c(N)ncnc32)[C@H](O)[C@@H]1O)Nc1cccc(-c2ccoc2)c1 [Compound 6i]	46%	95%	98%	95%	100%	
COc1cc2nc(-c3cccc(O)c3)nc(NCCSC[C@H]3O[C@@H](n4cnc5c(N)ncnc54)[C@H](O)[C@@H]3O)c2cc1OC [Compound 12g]	4%	2%	25%	13%	10%	
Nc1ncnc2c1ncn2[C@@H]1O[C@H](CSCCOc2ccc(-c3ccoc3)cc2)[C@@H](O)[C@H]1O [Compound 14c]	6%	3%	39%	3%	17%	
Nc1ncnc2c1ncn2[C@@H]1O[C@H](CSCCNC(=O)NCc2ccc(-c3ccccc3O)cc2)[C@@H](O)[C@H]1O [Compound 8e]	13%	11%	-2%	-2%	53%	
Nc1ncnc2c1ncn2[C@@H]1O[C@H](CSCCNC(=O)NCc2ccc(-c3cccc(O)c3)cc2)[C@@H](O)[C@H]1O [Compound 8d]	9%	22%	15%	88%	37%	
